One may read the Ki as a measure of affinity in units of concentration, obtained from inhibition or displacement.

For the test, the target named is T1, human GCGR (Homo sapiens, UniProt P47871).
T1 construct: expressed in transfected cells; host or cells: HEK293 (hGluc-1HEK), pcDNA3.1, G418 selection
T1 sequence (P47871 26-477): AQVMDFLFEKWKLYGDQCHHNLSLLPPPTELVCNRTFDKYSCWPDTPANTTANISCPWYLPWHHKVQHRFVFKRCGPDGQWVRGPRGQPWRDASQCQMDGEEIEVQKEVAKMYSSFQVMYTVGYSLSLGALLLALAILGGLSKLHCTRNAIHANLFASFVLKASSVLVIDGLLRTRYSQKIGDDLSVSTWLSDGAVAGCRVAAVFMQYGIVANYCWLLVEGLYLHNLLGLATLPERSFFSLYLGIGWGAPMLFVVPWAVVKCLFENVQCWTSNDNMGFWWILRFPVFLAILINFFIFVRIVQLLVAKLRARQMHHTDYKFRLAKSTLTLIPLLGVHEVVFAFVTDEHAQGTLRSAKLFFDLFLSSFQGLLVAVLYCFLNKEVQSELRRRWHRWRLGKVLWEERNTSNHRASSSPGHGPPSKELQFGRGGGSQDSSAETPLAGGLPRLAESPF
Put plainly: Cellular functional assay, cAMP readout (glucagon-stimulated cAMP, LANCE TR-FRET). Type of test: cell-based. The following applies: HEK293 cells stably expressing full-length human GCGR; glucagon 100 pM; IC50 converted to Ki; read-out: Inhibition of cAMP Ki. As to the method: IC50 Values in Cellular Functional Assays: cAMP Readout
Full-length human GCGR (Accession Number: NM000160) subcloned into pcDNA3.1 was stably transfected into HEK293 cells (hGluc-1HEK) and maintained under G418 selection (500 μg/mL). Cell cultures were maintained in DMEM/F12 media supplemented with 10% FBS and 1% GlutaMax™ Supplement (Available from ThermoFisher Scientific, catalog #35050061). Glucagon stimulated cAMP was quantified using LANCE technology as per manufacturer instructions. On the day of the experiment, spent media was removed and cells were washed with Hank's Buffered Saline solution (HBSS), and cells harvested with non-enzymatic cell dissociation solution, then washed once with HBSS. Cells were re-suspended in stimulation buffer at a concentration of 0.83×10^6 cells/ml and cAMP detection antibody was added. 6 μl/well of this solution was then dispensed in a 384 well plate (cell density 5000 cells/well). Test compound was serially diluted in DMSO and 50 nl were dispensed on top of the cell solution and allowed to incubate for 30 minutes. 6 μl of a 2× glucagon solution (final concentration in assay 100 pM) was then added and the reaction was terminated after 5 minutes with the addition of detection mix. The resulting mixture was incubated, protected from light for 1.5 h. cAMP levels were quantified by TR-FRET in an EnVision instrument against a known standard. IC50's were generated by using a non-linear regression macro driven in Excel and converted to Ki values.
For the molecule `CCOc1c(-c2ccc(C(F)(F)F)cc2C)ccc2nn(C(CC(C)C)c3ccc(C(=O)NCCC(=O)O)nc3)cc12` (stereo not drawn) [Compound #207, 3-(5-(1-(4-Ethoxy-5-(2-methyl-4-(trifluoromethyl)phenyl)-2H-indazol-2-yl)-3-methylbutyl)picolinamido)propanoic acid], the Ki was 17 nM. In the case of `Cc1cc(C(F)(F)F)ccc1-c1ccc2c(cnn2C(CC(C)C)c2ccc(C(=O)NCCC(=O)O)cc2)c1Cl` (stereo not drawn) [Compound #135, 3-(4-(1-(4-Chloro-5-(2-methyl-4-(trifluoromethyl)phenyl)-1H-indazol-1-yl)-3-methylbutyl)benzamido)propanoic acid], the inhibition constant (Ki) worked out at 100 nM. As for `O=C(O)CCNC(=O)c1ccc(C(CCC(F)(F)F)n2ncc3cc(-c4cc5ccccc5s4)ccc32)cc1` (stereo not drawn) [Compound #115, 3-[[4-[1-[5-(Benzothiophen-2-yl)indazol-1-yl]-4,4,4-trifluorobutyl]benzoyl]amino]propanoic acid], the figure is 140 nM; as for `O=C(O)CCNC(=O)c1ccc(C(CCC2CCC2)n2ncc3cc(-c4ccc(C(F)(F)F)cc4)ccc32)cc1` (stereo not drawn) [Compound #239, 3-(4-(3-Cyclobutyl-1-(5-(4-(trifluoromethyl)phenyl)-1H-indazol-1-yl)propyl)benzamido)propanoic acid], 260 nM; as for `O=C(O)CCNC(=O)c1ccc(C(CCC(F)(F)F)n2ncc3cc(-c4ccc(C(F)(F)F)cc4Cl)ccc32)cc1` (stereo not drawn) [Compound #167, 3-[[4-[1-[5-[2-Chloro-4-(trifluoromethyl)phenyl]indazol-1-yl]-4,4,4-trifluorobutyl]benzoyl]amino]propanoic acid], 270 nM. As for `O=C(O)CCNC(=O)c1ccc(C(CC2CCCCC2)n2cc3cc(-c4ccc(C(F)(F)F)cc4)ccc3n2)cc1` (stereo not drawn) [compound 92], the figure is 63 nM.

Consider `Cc1cc(-c2ccc(C(C)(C)C)cc2)cc2cn(C(CC(C)C)c3ccc(C(=O)NCCC(=O)O)nc3)nc12` (stereo not drawn) [compound 108], for which the inhibition constant (Ki) came to 1340 nM. As for `Cc1cc2c(cnn2C(CC(C)C)c2ccc(C(=O)NCCC(=O)O)nc2)cc1-c1ccc(C(F)(F)F)cc1Cl` (stereo not drawn) [Compound #259, 3-[[5-[1-[5-[2-Chloro-4-(trifluoromethyl)phenyl]-6-methyl-indazol-1-yl]-3-methyl-butyl]pridine-2-carbonyl]amino]propanoic acid], the figure is 37 nM; as for `Cc1cc(Cl)ccc1-c1ccc2c(cnn2C(CC2CCCCC2)c2ccc(C(=O)NCCC(=O)O)nc2)c1` (stereo not drawn) [compound 183], 350 nM; as for `CCOc1c(-c2ccc(C(F)(F)F)cc2Cl)ccc2nn(C(CC(C)C)c3ccc(C(=O)NCCC(=O)O)nc3)cc12` (stereo not drawn) [Compound #205, 3-(5-(1-(5-(2-Chloro-4-(trifluoromethyl)phenyl)-4-ethoxy-2H-indazol-2-yl)-3-methylbutyl)picolinamido)propanoic acid], 57 nM.

Turning to `CCCCCCC(c1ccc(C(=O)NCCC(=O)O)nc1)n1ncc2cc(-c3ccc(C(F)(F)F)cc3)ccc21` (stereo not drawn) [compound 193], the Ki was found to be 155 nM. The result for `CC(C)CC(c1ccc(C(=O)NCCC(=O)O)nc1)n1ncc2cc(-c3ccc(C(C)(C)C)cc3)ccc21` (stereo not drawn) [Compound #36, 3-(5-(1-(5-(4-(tert-Butyl)phenyl)-1H-indazol-1-yl)-3-methylbutyl)picolinamido)propanoic acid] reads 430 nM; that for `Cc1c(-c2ccc(C(C)(C)C)cc2)ccc2nn(C(CC(C)C)c3ccc(C(=O)NCCC(=O)O)cc3)cc12` (stereo not drawn) [Compound #78, 3-(4-(1-(5-(4-(tert-Butyl)phenyl)-4-methyl-2H-indazol-2-yl)-3-methylbutyl)benzamido)propanoic acid], 35 nM; that for `CCCCCCC(c1ccc(C(=O)NCCC(=O)O)cc1)n1cc2cc(-c3ccc(C(F)(F)F)cc3)ccc2n1` (stereo not drawn) [Compound #26], 45 nM. `CC(C)CC(c1ccc(C(=O)NCCC(=O)O)cc1)n1ncc2cc(-c3ccc4cnn(C)c4c3)ccc21` (stereo not drawn) [compound 116]: the inhibitory constant (Ki) amounted to 750 nM.

The values above are taken from US10000473B2, “Indazole derivatives useful as glucagon receptor antagonists” (Janssen Pharmaceutica NV, priority 2016, dated 2018).
